In US12221422B2, “Compounds and their use for the treatment of alpha1-antitrypsin deficiency” (CENTESSA PHARMACEUTICALS (UK) LIMITED, priority 2018, dated 2025):

Columns and labels:
Pharmacokinetics in mice = type: in vivo; conditions: male C57BI/6 mice
Procedure: N,N-dimethyl-4-((6-oxopyrimidin-1(6H)-yl)methyl)benzamide was administered to male C57BI/6 mice intravenously (2 mg/kg) or orally (10 mg/kg) by gavage. Whole blood diluted with water was prepared from these dosed animals over a time course up to 24 hours post dose to allow blood concentrations of drug to be measured by UPLC-MS/MS.

[1] = Plasma protein binding, mouse plasma (rapid equilibrium dialysis); type: in vitro ADME; conditions: 37° C.
Procedure: (§1) The extent to which compounds of the invention bound to plasma proteins such as albumin and alpha-1 acid glycoprotein within human, rat or mouse plasma was determined by rapid equilibrium dialysis. Compounds were incubated at 5 μM for 4 hours at 37° C. Plasma protein binding for N,N-dimethyl-4-((6-oxopyrimidin-1(6H)-yl)methyl)benzamide in mouse plasma was 37.3%, in rat plasma was 14.8% and in human plasma was 30.6%.

[2] = Plasma protein binding, human plasma (rapid equilibrium dialysis); type: in vitro ADME; conditions: 37° C.
Procedure: as §1

[3] = biological target: cardiac potassium (hERG) channels (Homo sapiens, UniProt Q12809); experiment: hERG channel inhibition, Patchliner automated patch clamp; type: cell-based; conditions: automated patch clamp, maximum test concentration 100 μM
Procedure: (§2) Compounds of the invention were tested for inhibition of cardiac potassium (hERG) channels using the Patchliner automated patch clamp. 6-Point concentration-response curves were generated using half-log serial dilutions from a maximum final test concentration of 100 μM. IC50 values were obtained from a 4-parameter logistic fit of the concentration-response data. […] Reference compound values were consistent with those presented in the literature (Elkins et al., 2013 J. Pharm. Tox. Meth. 68:11-122).

hERG = hERG (Homo sapiens, UniProt Q12809); experiment: as above; type: cell-based; conditions: human; at 100 μM
Procedure: as §2

[4] = tested on: panel of enzymes, ion channels and receptors; experiment: DiscoverX Safety47 panel; conditions: at 10 μM
Procedure: Compounds of the invention were tested against the DiscoverX Safety47™ panel. […] No target was inhibited by more than 25% at this concentration.

[5] = tested on: TA98, TA100, WP2 uvrA, TA1535, TA1537 bacterial strains; experiment: Bacterial reverse mutation test; conditions: up to 5000 μg/plate, presence and absence of S-9 mix
Procedure: The purpose of the bacterial reverse mutation test is to assess the mutagenic potential of the test item by its ability to revert the specified bacterial strains from auxotrophic growth to prototrophy. The assay detects point (gene) mutations at specific histidine or tryptophan loci, which may be induced by compounds that cause base pair substitutions or frameshift mutations in the genome of these organisms. Assays were performed in the presence and absence of an exogenous mammalian oxidative metabolising system (S-9 mix, a liver post-mitochondrial fraction derived from the livers of Aroclor 1254 treated rats), to mimic mammalian metabolism. The test methodology was based on established procedures for bacterial mutagenicity testing.
N,N-dimethyl-4-((6-oxopyrimidin-1(6H)-yl)methyl)benzamide was tested up to the guideline regulatory maximum dose level of 5000 μg/plate in all strains in the presence and absence of […].
There were no increases in revertant numbers, greater than the defined fold-increases (to twice the relevant negative control value for TA98, TA100 or WP2 uvrA or three times the relevant negative control value for TA1535 or TA1537), in any strain at any dose level of N,N-dimethyl-4-((6-oxopyrimidin-1(6H)-yl)methyl)benzamide, in the presence or absence of S-9 mix, under plate incorporation conditions.

TK6 cells = experiment: In vitro micronucleus assay; type: cell-based; parameters: relative increase in cell count (RICC): dose or concentration left out as unconfirmed; conditions: for relative increase in cell count (RICC): vs concurrent negative control
From the text: The purpose of the in vitro micronucleus assay is to assess the ability of the test item to cause chromosome or spindle damage, or to interfere with the cell cycle, in ways which lead to the formation of micronuclei in the cytoplasm of TK6 cells. Chromosome defects are recognised as being the basis of a number of human genetic diseases. Micronuclei (MN) are the result of chromosome fragments or whole chromosomes remaining in the cytoplasm and not being incorporated into the nuclei of newly formed cells. These arise from damage to chromosomes leading to acentric fragments which cannot attach to the mitotic spindle; damage to the spindle apparatus preventing a chromosome from attaching to it or other interference with cell division. Assays were performed in the presence and absence of an exogenous mammalian oxidative metabolising system (S-9 mix, a liver post-mitochondrial fraction derived from the livers of Aroclor 1254 treated rats), to mimic mammalian metabolism. Cells were exposed to the test item for 3 hours and sampled 44 hours after the beginning of treatment. As a number of chemicals have been reported as only exerting positive effects following prolonged treatment, a continuous treatment of 27 hours in the absence of S-9 mix was also included. This was equivalent to 1.5 to 2.0 times the average generation time of cultured cells used in the assay. The test methodology was based on established procedures for in vitro micronucleus testing.
N,N-dimethyl-4-((6-oxopyrimidin-1(6H)-yl)methyl)benzamide was tested up to the regulatory maximum dose level of 1 mM […] in all treatments.

[6] = mouse, whole blood, iv 2 mg/kg or oral 10 mg/kg (route not stated), blood

Chain of cardiac potassium (hERG) channels (Q12809 whole entry): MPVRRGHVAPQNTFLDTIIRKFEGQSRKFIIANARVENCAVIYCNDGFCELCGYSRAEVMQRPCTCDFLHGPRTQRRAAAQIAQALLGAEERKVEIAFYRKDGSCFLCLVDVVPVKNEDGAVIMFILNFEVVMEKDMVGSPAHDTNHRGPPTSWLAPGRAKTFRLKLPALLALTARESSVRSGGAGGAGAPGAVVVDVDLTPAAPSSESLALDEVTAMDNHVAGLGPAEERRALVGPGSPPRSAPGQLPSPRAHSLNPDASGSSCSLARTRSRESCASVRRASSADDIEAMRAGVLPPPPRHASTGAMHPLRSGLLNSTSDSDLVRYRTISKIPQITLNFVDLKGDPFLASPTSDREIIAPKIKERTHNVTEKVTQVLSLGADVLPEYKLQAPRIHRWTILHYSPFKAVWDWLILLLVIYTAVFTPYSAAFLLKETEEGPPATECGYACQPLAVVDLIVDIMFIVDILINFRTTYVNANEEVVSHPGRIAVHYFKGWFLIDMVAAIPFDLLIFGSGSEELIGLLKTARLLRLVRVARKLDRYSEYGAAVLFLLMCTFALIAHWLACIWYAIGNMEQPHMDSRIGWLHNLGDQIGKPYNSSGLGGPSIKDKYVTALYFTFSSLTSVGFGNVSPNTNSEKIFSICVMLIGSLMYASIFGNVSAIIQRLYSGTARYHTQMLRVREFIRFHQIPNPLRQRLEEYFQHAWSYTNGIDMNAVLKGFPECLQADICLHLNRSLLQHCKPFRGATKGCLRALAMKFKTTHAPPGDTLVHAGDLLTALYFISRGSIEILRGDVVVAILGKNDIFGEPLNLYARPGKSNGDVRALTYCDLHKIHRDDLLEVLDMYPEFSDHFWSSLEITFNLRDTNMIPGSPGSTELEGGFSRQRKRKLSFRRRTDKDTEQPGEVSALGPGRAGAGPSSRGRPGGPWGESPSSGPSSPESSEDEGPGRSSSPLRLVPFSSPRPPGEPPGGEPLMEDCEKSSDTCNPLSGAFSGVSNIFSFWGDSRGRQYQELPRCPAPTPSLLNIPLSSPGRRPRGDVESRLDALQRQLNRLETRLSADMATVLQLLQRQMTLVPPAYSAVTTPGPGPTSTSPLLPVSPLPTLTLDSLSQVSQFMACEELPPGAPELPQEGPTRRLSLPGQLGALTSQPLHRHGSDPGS
Chain of hERG (Q12809 whole entry): as above

## CN(C)C(=O)c1ccc(Cn2cnccc2=O)cc1 [N,N-dimethyl-4-((6-oxopyrimidin-1(6H)-yl)methyl)benzamide]
Pharmacokinetics in mice; oral 10 mg/kg vs iv 2 mg/kg
  Oral Bioavailability (F, AUCINF): 73%
Pharmacokinetics in mice; [6]
  AUC: 15600 ng·h/mL
  AUC(0-inf): 15600 ng·h/mL
Pharmacokinetics in mice; mouse, whole blood, iv 2 mg/kg or oral 10 mg/kg, read-out: Half-life in blood (t1/2) (converted)
  half-life: 1.9 h
Pharmacokinetics in mice; mouse, whole blood, iv 2 mg/kg or oral 10 mg/kg, read-out: Observed clearance
  clearance: 7.8 mL/min/kg
Pharmacokinetics in mice; mouse, whole blood, iv 2 mg/kg or oral 10 mg/kg, read-out: Volume of distribution (Vz)
  Vd: 1.3 L/kg
Pharmacokinetics in mice; mouse, whole blood, oral 10 mg/kg, blood
  Cmax: 9310 ng/mL
[1]
  fraction unbound at 4 h, 5 μM: 0.627
[2]
  fraction unbound at 4 h, 5 μM: 0.694
[3]
  IC50: > 100 µM
hERG
  inhibition at 100 µM: 7%
[4]
  inhibition of any target of the Safety47 panel: ≤ 25%
[5]; all strains, plate incorporation
  mutagenicity (revertant numbers): not mutagenic
[5]
  toxicity to bacterial strains: no evidence of toxicity
TK6 cells; absence of S-9 mix, 3 hour treatment
  relative increase in cell count (RICC): 98%
TK6 cells; absence of S-9 mix, 27 hour treatment
  relative increase in cell count (RICC): 74%
TK6 cells; presence of S-9 mix, 3 hour treatment
  relative increase in cell count (RICC): 105%
TK6 cells; presence or absence of S 9 mix
  clastogenicity / aneugenicity: neither clastogenic nor aneugenic
TK6 cells; up to 1 mM, 27 hour treatment only
  cytotoxicity: only slight cytotoxicity
TK6 cells; with S-9 mix 3 hour, without S-9 mix 3 hour or 27 hour
  percentage MN (% MN): no statistically significant increases
